Structures can show the parent of a compound that is named as a salt. Where only a bound is given, the exact number is not on record here.

Chain of S1P1/EDG1 (P21453 whole entry): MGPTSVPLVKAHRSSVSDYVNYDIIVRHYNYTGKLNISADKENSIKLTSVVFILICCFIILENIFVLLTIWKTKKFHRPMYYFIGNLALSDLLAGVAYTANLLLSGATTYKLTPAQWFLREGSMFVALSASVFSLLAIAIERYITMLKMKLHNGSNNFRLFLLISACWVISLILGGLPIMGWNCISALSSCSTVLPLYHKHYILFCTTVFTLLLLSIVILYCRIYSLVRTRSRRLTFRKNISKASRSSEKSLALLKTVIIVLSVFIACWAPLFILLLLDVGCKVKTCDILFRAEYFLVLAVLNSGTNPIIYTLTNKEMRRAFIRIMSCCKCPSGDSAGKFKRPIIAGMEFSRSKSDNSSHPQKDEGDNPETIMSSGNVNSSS

The experiment addresses S1P1/EDG1 (Homo sapiens, UniProt P21453). The experiment in a line: S1P1 CRE-bla CHOK1 reporter assay, inhibition of Forskolin induced cAMP. Conditions: agonist activity range; S1P1 CRE-bla CHOK1 cells, 2 μM Forskolin; read-out: S1P1 ACTIVITY
Format: cell-based. A digest of the protocol: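 CRE-bla CHO K1 cells stably expressing human S1P1 were treated 4 hrs at 37° C with 10-point compound dilutions plus 2 μM Forskolin. Inhibition of cAMP-driven β-lactamase reporter was read with a FRET substrate loaded 2 hrs at room temperature.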
On the technique in general: Reporter assays use an easily measured gene product as a stand-in for the process of interest.
With `CC(C)Oc1ccc(-c2nnc(-c3cccc4c3CCC[C@H]4NS(=O)(=O)CC(=O)O)s2)cc1C#N` [Compound 287, (R)-2-(N-(5-(5-(3-cyano-4-isopropoxyphenyl)-1,3,4-thiadiazol-2-yl)-1,2,3,4-tetrahydronaphthalen-1-yl)sulfamoyl)acetic acid], the EC50 lay within 0.05 to 0.5 nM.

`CC(C)Oc1ccc(-c2nnc(-c3cccc4c3CCC[C@H]4NCc3ccncc3)s2)cc1C#N` [Compound 262]: the EC50 is 0.5 to 5 nM.

`CC(C)Oc1ccc(-c2nnc(-c3cccc4c3CCC[C@@H]4NS(=O)(=O)CCCO)s2)cc1C#N` [Compound 291]: the EC50 lay in the range of 0.05 to 0.5 nM.

With `CC(C)Oc1ccc(-c2nnc(-c3cccc4c3CC[C@H]4NCCS(C)(=O)=O)s2)cc1C#N` [Compound 32, (R)-2-isopropoxy-5-(5-(1-((2-(methylsulfonyl)ethyl)amino)-2,3-dihydro-1H-inden-4-yl)-1,3,4-thiadiazol-2-yl)benzonitrile], the EC50 was below 0.05 nM.

Take `CC(C)Oc1ccc(-c2nnc(-c3cccc4c3CCC[C@@H]4NC(=O)c3ccccn3)s2)cc1C#N` [Compound 243]: the EC50 was above 5 nM.

On to `CNCCS(=O)(=O)N[C@@H]1CCc2c(-c3cnc(-c4ccc(OC(C)C)c(C#N)c4)s3)cccc21` [Compound 126], for which the EC50 lay within 0.5 to 5 nM.

As to `CC(C)Oc1ccc(-c2nnc(-c3cccc4c3CC[C@H]4NC(=O)N3CC[C@H](O)C3)s2)cc1C#N` [Compound 54], the EC50 lay within 0.05 to 0.5 nM.

With `CC(C)Oc1ccc(-c2ncc(-c3cccc4c3CC[C@H]4NC(=O)CO)s2)cc1C#N` [Compound 74], the EC50 was in the range of 0.05 to 0.5 nM.

As for `CC(C)Oc1ccc(-c2nnc(-c3cccc4c3CCC[C@@H]4NC(=O)CO)s2)cc1C#N` [Compound 246, (S)—N-(5-(5-(3-cyano-4-isopropoxyphenyl)-1,3,4-thiadiazol-2-yl)-1,2,3,4-tetrahydronaphthalen-1-yl)-2-hydroxyacetamide], the EC50 was 0.05 to 0.5 nM.

As for `CC(C)Oc1ccc(-c2nnc(-c3cccc4c3CC[C@H]4NCC(=O)O)s2)cc1C#N` [Compound 27, (R)-2-((4-(5-(3-cyano-4-isopropoxyphenyl)-1,3,4-thiadiazol-2-yl)-2,3-dihydro-1H-inden-1-yl)amino)acetic acid], the EC50 lay in the range of 0.05 to 0.5 nM.

`CC(C)Oc1ccc(-c2nnc(-c3cccc4c3CC[C@H]4NS(=O)(=O)CC(=O)O)s2)cc1C#N` [Compound 41, (R)-2-(N-(4-(5-(3-cyano-4-isopropoxyphenyl)-1,3,4-thiadiazol-2-yl)-2,3-dihydro-1H-inden-1-yl)sulfamoyl)acetic acid]: the EC50 is below 0.05 nM.

On to `CC(C)Oc1ccc(-c2nnc(-c3cccc4c3CCC[C@@H]4NC(=O)CCN(C)C)s2)cc1C#N` [Compound 256, (S)—N-(5-(5-(3-cyano-4-isopropoxyphenyl)-1,3,4-thiadiazol-2-yl)-1,2,3,4-tetrahydronaphthalen-1-yl)-3-(dimethylamino)propanamide], for which the EC50 was 0.5 to 5 nM.

`CC(C)Oc1ccc(-c2ncc(-c3cccc4c3CC[C@H]4NC(=O)N3CCC[C@H](O)C3)s2)cc1C#N` [Compound 197]: the EC50 lay within 0.5 to 5 nM.

On to `COC(=O)N[C@@H]1CCc2c(-c3cnc(-c4ccc(OC(C)C)c(C#N)c4)s3)cccc21` [Compound 89], for which the EC50 lay within 0.5 to 5 nM.

`CC(=O)N[C@H]1CCCc2c(-c3nnc(-c4ccc(OC(C)C)c(C#N)c4)s3)cccc21` [Compound 232, (S)—N-(5-(5-(3-cyano-4-isopropoxyphenyl)-1,3,4-thiadiazol-2-yl)-1,2,3,4-tetrahydronaphthalen-1-yl)acetamide]: the EC50 is 0.5 to 5 nM.

Turning to `CC(C)Oc1ccc(-c2ncc(-c3cccc4c3CC[C@H]4NC(=O)N3CCC(O)CC3)s2)cc1C#N` [Compound 202], the EC50 was 0.5 to 5 nM.

In the case of `COC(=O)CS(=O)(=O)N[C@@H]1CCc2c(-c3cnc(-c4ccc(OC(C)C)c(C#N)c4)s3)cccc21` [Compound 154, (R)-methyl 2-(N-(4-(2-(3-cyano-4-isopropoxyphenyl)thiazol-5-yl)-2,3-dihydro-1H-inden-1-yl)sulfamoyl)acetate], the EC50 lay within 0.05 to 0.5 nM.

As to `CC(C)Oc1ccc(-c2ncc(-c3cccc4c3CC[C@H]4NC(=O)N3CC[C@H](O)C3)s2)cc1C#N` [Compound 177], the EC50 fell in the range of 0.05 to 0.5 nM.

Consider `CC(C)Oc1ccc(-c2nnc(-c3cccc4c3CC[C@H]4NCC(=O)N3CCCC3)s2)cc1C#N` [Compound 39], for which the EC50 fell in the range of 0.05 to 0.5 nM.

Consider `CC(C)Oc1ccc(-c2nnc(-c3cccc4c3CCC[C@H]4NCc3cnco3)s2)cc1C#N` [Compound 273], for which the EC50 fell in the range of 0.5 to 5 nM.

On to `CC(C)Oc1ccc(-c2ncc(-c3cccc4c3CC[C@H]4NS(=O)(=O)CCN3CCC3)s2)cc1C#N` [Compound 127], for which the EC50 fell in the range of 0.5 to 5 nM.

On to `CC(C)Oc1ccc(-c2ncc(-c3cccc4c3CC[C@H]4NC(=O)N3CCC(CC(=O)O)CC3)s2)cc1C#N` [Compound 200], for which the EC50 is 0.05 to 0.5 nM.

With `CC(C)Oc1ccc(-c2nnc(-c3cccc4c3CCC[C@H]4NC(=O)CCN(C)C)s2)cc1C#N` [Compound 257, (R)—N-(5-(5-(3-cyano-4-isopropoxyphenyl)-1,3,4-thiadiazol-2-yl)-1,2,3,4-tetrahydronaphthalen-1-yl)-3-(dimethylamino)propanamide], the EC50 is above 5 nM.

As to `CC(C)Oc1ccc(-c2ncc(-c3cccc4c3CC[C@H]4NC(=O)N3CC[C@H](N)C3)s2)cc1C#N` [Compound 179], the EC50 lay in the range of 0.5 to 5 nM.

`CC(C)Oc1ccc(-c2ncc(-c3cccc4c3CC[C@H]4NS(=O)(=O)CCN(C)C)s2)cc1C#N` [Compound 123]: the EC50 fell in the range of 0.5 to 5 nM.

Turning to `CNC(=O)CN[C@H]1CCCc2c(-c3nnc(-c4ccc(OC(C)C)c(C#N)c4)s3)cccc21` [Compound 306], the EC50 lay within 0.05 to 0.5 nM.

With `CC(C)Oc1ccc(-c2nc(-c3cccc4c3CC[C@@H]4NS(=O)(=O)CCO)ns2)cc1C#N` [Compound 314, (S)—N-(4-(5-(3-cyano-4-isopropoxyphenyl)-1,2,4-thiadiazol-3-yl)-2,3-dihydro-1H-inden-1-yl)-2-hydroxyethanesulfonamide], the EC50 is 0.5 to 5 nM.

As for `CC(C)Oc1ccc(-c2ncc(-c3cccc4c3CC[C@H]4NS(=O)(=O)CCN3CCCCC3)s2)cc1C#N` [Compound 140], the EC50 was above 5 nM.

As to `CC(C)Oc1ccc(-c2ncc(-c3cccc4c3CC[C@H]4NCc3ncc[nH]3)s2)cc1C#N` [Compound 109, (R)-5-(5-(1-(((1H-imidazol-2-yl)methyl)amino)-2,3-dihydro-1H-inden-4-yl)thiazol-2-yl)-2-isopropoxybenzonitrile], the EC50 was in the range of 0.5 to 5 nM.

In the case of `CC(C)Oc1ccc(-c2ncc(-c3cccc4c3CC[C@H]4NC(=O)CN3CCCC3)s2)cc1C#N` [Compound 85], the EC50 was above 5 nM.

On to `CC(C)Oc1ccc(-c2nnc(-c3cccc4c3CCC[C@H]4NCCO)s2)cc1C#N` [Compound 299, (R)-5-(5-(5-((2-hydroxyethyl)amino)-5,6,7,8-tetrahydronaphthalen-1-yl)-1,3,4-thiadiazol-2-yl)-2-isopropoxybenzonitrile], for which the EC50 fell in the range of 0.5 to 5 nM.

For the compound `CC(C)Oc1ccc(-c2nnc(-c3cccc4c3CCC[C@H]4NCCS(C)(=O)=O)s2)cc1C#N` [Compound 296, (R)-2-isopropoxy-5-(5-(5-((2-(methylsulfonyl)ethyl)amino)-5,6,7,8-tetrahydronaphthalen-1-yl)-1,3,4-thiadiazol-2-yl)benzonitrile], the EC50 lay in the range of 0.05 to 0.5 nM.

For the compound `CC(C)Oc1ccc(-c2nnc(-c3cccc4c3CCC[C@@H]4NCc3cnco3)s2)cc1C#N` [Compound 269], the EC50 fell in the range of 0.5 to 5 nM.

Turning to `CC(C)Oc1ccc(-c2ncc(-c3cccc4c3CC[C@H]4NC(=O)N3CCC[C@H](O)C3)s2)cc1C#N` [Compound 199], the EC50 lay within 0.05 to 0.5 nM.

As for `CC(C)Oc1ccc(-c2ncc(-c3cccc4c3CC[C@H]4NCC(=O)O)s2)cc1C#N` [Compound 96, (R)-2-((4-(2-(3-cyano-4-isopropoxyphenyl)thiazol-5-yl)-2,3-dihydro-1H-inden-1-yl)amino)acetic acid], the EC50 is 0.05 to 0.5 nM.

Take `CC(C)Oc1ccc(-c2nnc(-c3cccc4c3CCC[C@H]4NCc3ncc[nH]3)s2)cc1C#N` [Compound 265]: the EC50 lay within 0.5 to 5 nM.

As for `CC(C)Oc1ccc(-c2ncc(-c3cccc4c3CC[C@H]4NS(=O)(=O)C3CC3)s2)cc1C#N` [Compound 117], the EC50 was 0.05 to 0.5 nM.

`CC(C)Oc1ccc(-c2ncc(-c3cccc4c3CC[C@H]4NS(=O)(=O)CCC(=O)O)s2)cc1C#N` [Compound 160]: the EC50 is below 0.05 nM.

Regarding `CC(C)Oc1ccc(-c2nsc(-c3cccc4c3CC[C@@H]4N)n2)cc1C#N` [Compound 308, (S)-5-(5-(1-amino-2,3-dihydro-1H-inden-4-yl)-1,2,4-thiadiazol-3-yl)-2-isopropoxy benzonitrile hydrochloride], the EC50 fell in the range of 0.5 to 5 nM.

`CCS(=O)(=O)N[C@@H]1CCc2c(-c3cnc(-c4ccc(OC(C)C)c(C#N)c4)s3)cccc21` [Compound 113]: the EC50 is 0.05 to 0.5 nM.

For `COC(=O)CS(=O)(=O)N[C@H]1CCCc2c(-c3nnc(-c4ccc(OC(C)C)c(C#N)c4)s3)cccc21` [Compound 284, (S)-methyl 2-(N-(5-(5-(3-cyano-4-isopropoxyphenyl)-1,3,4-thiadiazol-2-yl)-1,2,3,4-tetrahydronaphthalen-1-yl)sulfamoyl)acetate], the EC50 was in the range of 0.5 to 5 nM.

Regarding `CC(C)Oc1ccc(-c2ncc(-c3cccc4c3CC[C@H]4NC(=O)N(C)C)s2)cc1C#N` [Compound 168], the EC50 lay within 0.05 to 0.5 nM.

Consider `CC(C)Oc1ccc(-c2ncc(-c3cccc4c3CC[C@H]4NC(=O)Cc3ccccc3)s2)cc1C#N` [Compound 83], for which the EC50 was above 5 nM.

In the case of `CC(C)Oc1ccc(-c2nnc(-c3cccc4c3CCC[C@@H]4NS(N)(=O)=O)s2)cc1C#N` [Compound 276, (S)—N-(5-(5-(3-cyano-4-isopropoxyphenyl)-1,3,4-thiadiazol-2-yl)-1,2,3,4-tetrahydronaphthalen-1-yl)sulfamide], the EC50 is 0.05 to 0.5 nM.

Take `COCCS(=O)(=O)N[C@H]1CCCc2c(-c3nnc(-c4ccc(OC(C)C)c(C#N)c4)s3)cccc21` [Compound 281, (S)—N-(5-(5-(3-cyano-4-isopropoxyphenyl)-1,3,4-thiadiazol-2-yl)-1,2,3,4-tetrahydronaphthalen-1-yl)-2-methoxyethanesulfonamide]: the EC50 was in the range of 0.05 to 0.5 nM.

Values taken from patent US9481659B2, “Selective heterocyclic sphingosine 1 phosphate receptor modulators” (Celgene International II SÀRL, priority 2011, dated 2016).
